From publication PMC6884575, “Suppression of FOXM1 activities and breast cancer growth in vitro and in vivo by a new class of compounds” (NPJ Breast Cancer, 2019)

Experiments:
[1] = test system: tamoxifen-resistant MCF7 breast cancer cells; assay: Proliferation of tamoxifen-resistant MCF7 cells; format: cell-based, human; conditions: 6 days, cell numbers
Description: resistant MCF7 cells. Cells were treated with NB-73 or trans-hydroxytamoxifen (OH-
Tam) for 6 days and cell numbers were monitored. Values are mean ± SD of three
(1 picture or pasted object on this page, not shown here)

[2] = Pharmacokinetics in mice after single s.c. or oral dose; format: in vivo, female CD1 mice; conditions: for AUC / Cmax / half-life: female, CD1, mouse, single dose, plasma
Description: The pharmacokinetics of compounds were monitored after single dose administration into female CD1 mice (7–9 weeks of age) via s.c. injection or oral gavage, as described.[39] For s.c. injection, each compound was dissolved in DMSO and then mixed with corn oil for a total injection volume of 100 μL (10% DSMO + 90% corn oil) per mouse. For oral gavage, compounds were administered in a 200 µL formulation of 9/0.5/0.5/90 parts of PEG400/Tween80/Povidone/0.5% Carboxymethylcellulose in DI water. […] Compounds were quantified by LC-MS/MS at the University of Illinois Metabolomics Core Facility. The data were fitted to a non-compartment model.

[3] = test system: DT22 breast tumor xenografts; assay: DT22 human breast tumor xenograft growth in NSG mice; format: in vivo; conditions: for tumor growth: DT22 tumors, NSG mice, s.c., 20 mg/kg every other day for 10 days then 10 mg/kg every other day; for tumor growth in vivo: low doses (2–20 mg/kg) s.c. daily or every other day; for animal body weight / growth of tumor xenografts: low doses s.c.: NB-115 2 or 6 mg/kg daily, NB-63 20 mg/kg daily then 10 mg/kg every other day from day 20
Description: For examination of the effects of compounds on breast tumor growth suppression, intact female NOD/SCID-gamma (NSG) mice were used as detailed previously.[39] DT-22 breast cancer cells (1 × 10^6 cells/mouse) were injected s.c. into the right axial mammary gland. Mice received s.c. injection or oral gavage daily or every second or third day as indicated, with vehicle or treatment compound, and tumor volume (length × width^2/2) was monitored over time.

FOXM1 = molecular target: T1, FOXM1 (Homo sapiens, UniProt Q08050); assay: tr-FRET competitive binding assay with Fl-NB-72 probe; set-up: we attached a terbium donor to purified, full length FOXM1 through a streptavidin-biotin linker; conditions: calculated from IC50 values; Supplementary Table 1; read-out: Ki, affinity for binding to FOXM1 protein
T1 sequence (Q08050 1-763): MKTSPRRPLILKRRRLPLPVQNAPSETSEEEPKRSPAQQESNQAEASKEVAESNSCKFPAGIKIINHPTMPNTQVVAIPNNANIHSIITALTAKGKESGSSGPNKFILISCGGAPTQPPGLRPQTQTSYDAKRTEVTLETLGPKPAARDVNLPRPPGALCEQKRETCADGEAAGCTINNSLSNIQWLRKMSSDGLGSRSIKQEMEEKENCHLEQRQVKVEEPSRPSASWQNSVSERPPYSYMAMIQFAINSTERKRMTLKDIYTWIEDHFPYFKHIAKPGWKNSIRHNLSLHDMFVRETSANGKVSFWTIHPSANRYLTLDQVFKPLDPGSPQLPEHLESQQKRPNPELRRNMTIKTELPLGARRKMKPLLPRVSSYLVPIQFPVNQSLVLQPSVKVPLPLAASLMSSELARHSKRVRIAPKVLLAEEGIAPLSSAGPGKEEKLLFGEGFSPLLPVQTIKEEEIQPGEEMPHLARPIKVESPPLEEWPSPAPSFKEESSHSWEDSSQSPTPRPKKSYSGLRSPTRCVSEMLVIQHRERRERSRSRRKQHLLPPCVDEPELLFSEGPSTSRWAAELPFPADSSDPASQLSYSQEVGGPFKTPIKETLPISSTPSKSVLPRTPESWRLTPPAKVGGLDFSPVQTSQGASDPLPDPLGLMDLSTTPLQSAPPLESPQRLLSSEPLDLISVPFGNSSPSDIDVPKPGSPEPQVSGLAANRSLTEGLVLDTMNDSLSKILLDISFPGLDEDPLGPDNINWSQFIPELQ
Description: Competitive binding assays of compound binding to FOXM1 by tr-FRET were done in FRET buffer (20 mM Tris, pH 7.5, 50 mM NaCl, 0.01% NP-40 detergent, 10% glycerol) with 0.3 mg/ml ovalbumin and 0.1 mM butylated hydroxy-anisole added fresh daily. Solutions of the protein, fluorescent probe and compound dilutions were prepared at 3× concentrations, the final dilution taking place as they were mixed together in equal portions on the microtiter plate.
Final concentrations were 10^−5 M to 10^−9 M, with the last point being buffer only, no compound. Fluorescein-NB-72 (Fl-NB- 72) was prepared at 1 mM in DMF and stored at −20 °C. It was diluted into FRET buffer to give 100 nM in the assay. Incubations were done in duplicate on black Molecular Devices 96-well microtiter plates. 5 μl of Fl-NB-72 and 5 μl of the compound dilutions, were mixed together on the plate. To this was added 5 µl biotin-FoxM1 and incubated in the dark at room temperature, for 1 h. […] To correct for background signals, biotin-FOXM1 was omitted, and diffusion-enhanced FRET incubations were done in duplicate on black Molecular Devices 96-well microtiter plates. Five microliter of Fl-NB-72 and 5 μl of the compound solutions were mixed together and then 5 µl of FRET buffer plus SaTb was added, mixed and incubated in the dark at room temperature, for 1 h. The tr-FRET signals measured as above were subtracted as a background from the first incubations that contained biotin-FOXM1. Graphs were prepared using Graph Pad/Prism 4.

[4] = test system: FOXM1 target gene expression in MCF7 cells; assay: FOXM1 target gene expression by qRT-PCR; format: cell-based, human; conditions: MCF7, 24 h, compound at its IC50 for proliferation
Description: Total RNA was isolated using TRIzol (Invitrogen) and reverse transcribed using […] reverse transcriptase (New England BioLabs). Real-time PCR was performed using SYBRgreen PCR Master Mix (Quantabio) as described.[15] Relative mRNA levels of genes were normalized to the housekeeping gene 36B4, and fold-change calculated relative to the vehicle treated samples. Results are the average ± SD from at least two independent experiments carried out in triplicate. Primer sequences for the genes studied were obtained from the Harvard Primer Bank. Sequences are available on their website.

[5] = test system: DT22 cells and MCF7 cells; assay: Cell proliferation in DT22 and MCF7 cells; format: cell-based, human; conditions: 3 days
Description: WST-1 assay (Roche, Basel, Switzerland) was used to quantify cell viability as described.[38] […] All assays were performed in triplicate and analyzed using Graph Pad Prism 8.0.

Structure (SMILES) | blood levels of compound ([2]; after oral administration) | blood levels of compound ([2]; after s.c. injection) | AUC ([2]; oral, 60 mg/kg) | Cmax ([2]; oral, 60 mg/kg) | AUC ([2]; sc, 60 mg/kg) | Cmax ([2]; sc, 60 mg/kg) | half-life ([2]; sc, 60 mg/kg) | tumor growth in vivo [3] | half-life ([2]; oral, 60 mg/kg) | Ki (FOXM1) | Cmax ([2]; oral, 40 mg/kg) | other results
CC/C(=C(\c1ccc(O)cc1)c1ccc(OCCN(C)C)cc1)c1ccccc1 [trans-hydroxytamoxifen, reference compound] |  |  |  |  |  |  |  |  |  |  |  | proliferation of tamoxifen-resistant MCF7 cells [1]: weakly stimulated
C[N+]1(CCCCCCOc2ccc(C(=C3C4CC5CC(C4)CC3C5)c3ccc(OCCCCCC[N+]4(C)CCCCC4)cc3)cc2)CCCCC1 [NB-71] | only very low levels | very high blood levels | 0.08 µM·h | 30 nM | 198 µM·h | 9520 nM | 33.2 h | greatly suppress tumor growth |  |  |  | tumor growth [3]: greatly suppress tumor growth
c1cc(C(c2ccc(OCCCCCCN3CCCCC3)cc2)=C2[C@H]3C[C@@H]4C[C@@H](C[C@H]2C4)C3)ccc1OCCCCCCN1CCCCC1 [NB-70] |  |  | 8.32 µM·h | 220 nM | 10.2 µM·h | 270 nM | 222 h |  | 51.2 h |  |  | 
c1cc(C(=C2C3CC4CC(C3)CC2C4)c2ccc(OCCCCCCN3CCCC3)cc2)ccc1OCCCCCCN1CCCC1 [NB-65] |  |  | 3.23 µM·h | 80 nM | 14.8 µM·h | 580 nM |  |  |  | 190 nM |  | 
c1cc(C(=C2C3CC4CC(C3)CC2C4)c2ccc(OCCCCCCN3CCCCCC3)cc2)ccc1OCCCCCCN1CCCCCC1 [NB-72] |  |  | 11.3 µM·h | 320 nM | 15.9 µM·h | 370 nM | 302 h |  | 60.6 h |  |  | 
CC[N+](C)(CC)CCCCCCOc1ccc(C(=C2C3CC4CC(C3)CC2C4)c2ccc(OCCCCCC[N+](C)(CC)CC)cc2)cc1 [NB-115] |  |  |  |  |  |  |  | greatly suppress tumor growth |  |  | 100 nM | AUC ([2]; sc, 40 mg/kg): 746 µM·h; Cmax ([2]; sc, 40 mg/kg): 34700 nM; half-life ([2]; sc, 40 mg/kg): 38.6 h; animal body weight [3]: little impact on animal body weight; growth of tumor xenografts [3]: effective in suppressing the growth of tumor xenografts; expression of ATF3, a gene suppressed by FOXM1 [4]: increased expression of ATF3; expression of FOXM1 stimulated target genes (FOXM1C, AURKB, CCNB1, PLK1) [4]: significantly reduced the expression
C[N+]1(CCCCCCOc2ccc(C(=C3C4CC5CC(C4)CC3C5)c3ccc(OCCCCCC[N+]4(C)CCCC4)cc3)cc2)CCCC1 [NB-68] | only very low levels | very high blood levels | 0.29 µM·h | 71 nM | 127 µM·h | 7120 nM | 23.7 h | greatly suppress tumor growth | 6.2 h | 51 nM |  | relative potency in suppressing cell proliferation [5]: potencies very similar to those of their parent amine compounds; tumor growth [3]: greatly suppress tumor growth
C[N+]1(CCCCCCOc2ccc(C(c3ccc(Cl)cc3)=C3C4C[C@H]5C[C@@H](C4)C[C@H]3C5)cc2)CCCC1 [NB-63] | only very low levels | very high blood levels |  |  |  |  |  | greatly suppress tumor growth |  |  | 400 nM | relative potency in suppressing cell proliferation [5]: potencies very similar to those of their parent amine compounds; AUC ([2]; oral, 40 mg/kg): 1.67 µM·h; half-life ([2]; oral, 40 mg/kg): 5.8 h; AUC ([2]; sc, 40 mg/kg): 158 µM·h; Cmax ([2]; sc, 40 mg/kg): 5010 nM; half-life ([2]; sc, 40 mg/kg): 31.5 h; animal body weight [3]: little impact on animal body weight; growth of tumor xenografts [3]: effective in suppressing the growth of tumor xenografts
CCN(CC)CCCCCCOc1ccc(C(c2ccc(OCCCCCCN(CC)CC)cc2)=C2[C@H]3C[C@@H]4C[C@@H](C[C@H]2C4)C3)cc1 [NB-51] |  |  |  |  |  |  |  |  |  | 130 nM | 110 nM | AUC ([2]; oral, 40 mg/kg): 1.81 µM·h; half-life ([2]; oral, 40 mg/kg): 20.1 h; AUC ([2]; sc, 20 mg/kg): 4.73 µM·h; Cmax ([2]; sc, 20 mg/kg): 180 nM; half-life ([2]; sc, 20 mg/kg): 61.8 h
